Data: US9101628B2, “Methods and composition of treating a flaviviridae family viral infection” (The Board of Trustees of the Leland Stanford Junior …, priority 2007, dated 2015)
Entries after “also recorded” stand apart in the source; their conditions may differ. Counter-ions that a name gives are not always drawn. Like-named read-outs stand apart in the source and are kept apart here.

Columns and labels:
[1] = test system: full-length J6/JFH (genotype 2a) HCV RNA genome; assay: microbe, parasite or virus in culture; assay type: cell-based; details: for EC50: Hepatitis C virus, Huh7.5, 72 h, read-out: EC50 HCV replication, genotype 2a luciferase reporter, Huh7.5 cells, 72 hr
Description: In such assays, luciferase activity is directly proportional to HCV RNA genome replication.
The in vivo antiviral effect on HCV RNA replication of the inhibitory compounds identified in the above screen was measured. Following electroporation with a full-length HCV RNA genome harboring a luciferase reporter gene, Huh7.5 cells were grown in the presence of increasing concentrations of these compounds. Luciferase assays were performed at 72 hr. In parallel, the viability of cells in the presence of the compounds was assessed by an Alamar Blue-based assay.
Huh-7.5 cells were maintained in Dulbecco's modified minimal essential medium (Gibco) supplemented with 1% L-glutamine (Gibco), 1% penicillin, 1% streptomycin (Gibco), 1× nonessential amino acids (Gibco) and 10% fetal bovine serum (Omega Scientific). Cell lines were passaged twice weekly after treatment with 0.05% trypsin-0.02% EDTA and seeding at a dilution of 1:5. Subconfluent Huh-7.5 cells were trypsinized and collected by centrifugation at 700 g for 5 min. The cells were then washed three times in ice-cold RNase-free PBS (BioWhittaker) and resuspended at 1.5*10^7 cells/ml in PBS. Wild type or mutant FL-J6/JFH-5′C19Rluc2AUbi RNA for electroporation was generated by in vitro transcription of XbaI-linearized DNA templates using the T7 MEGAscript kit (Ambion), followed by purification, essentially as described above (In vitro RNA transcription and fluorescent labeling). 5 μg of RNA was mixed with 400 μl of washed Huh-7.5 cells in a 2 mm-gap cuvette (BTX) and immediately pulsed (0.82 kV, five 99 μs pulses) with a BTX-830 electroporator. After a 10 min recovery at 25° C., pulsed cells were diluted into 10 ml of prewarmed growth medium. Cells from several electroporations were pooled to a common a stock and seeded in 6 well plates (5*10^5 cells per well). After 24 hr, medium was replaced and cells were grown in the presence of serial dilutions of the various inhibitory compounds (Sigma) identified in the screen. […] Untreated cells were used as a negative control for water soluble compounds. For compounds solubilized in DMSO, untreated cells were grown in the presence of corresponding concentrations of the solvent as a negative control. Medium was changed daily. After 72 hr of treatment, cells were subjected to an alamar blue based viability assay and luciferase assay.
The experiment was repeated four times, each time with triplicates.
Following electroporation with a full-length J6/JFH (genotype 2a) HCV RNA genome harboring a luciferase reporter gene, Huh7.5 cells were grown in the presence of various concentrations of the individual compounds and their combinations. Luciferase assays were performed at 72 hr.

hERG channel = hERG channel (Homo sapiens, UniProt Q12809); assay: HERG channel assay (whole cell recordings, CHO cell line expressing hERG)
Description: Test articles in this study were therefore characterized to determine their ability to inhibit the hERG channel. Ion channel activity was measured using a stably transfected Chinese Hamster Ovary (CHO) cell line expressing the hERG mRNA.
AVIVA's CHO cell line, which stably expresses hERG channels, was used for the study. Cells were cultured in DMEM/F12 containing 10% FBS, 1% penicillin/streptomycin and 500 μg/ml G418. Before testing, cells were harvested using Accumax (Innovative Cell Technologies).
Whole cell recordings were-performed using PX 7000A (Axon Instruments) with VIVA's SealChip™ technology. Cells were voltage clamped at a holding potential of −80 mV. The hERG current was then activated by a depolarizing step to −50 mV for 300 ms. This first step at −50 mV was used as a baseline for measuring peak amplitude of the tail current. Next, a voltage step to +20 mV was applied for 5 s to activate the channels. Finally a step back to −50 mV for 5 seconds removed activation and the deactivating tail current was recorded.
All compounds were prepared from either 10 or 30 mM DMSO stock solutions. Solutions were mixed by sonication for 20 min, followed by vigorous vortexing. Prior to testing, compounds were diluted to test concentrations in glass vials using External Solution. Dilutions were prepared no longer than 20 min prior to use. Equal amounts of DMSO (0.1%) were present in all final dilutions.
After achieving whole cell configuration, cells were monitored for 90 s to assess stability and then washed with External Solution for 66 s. The voltage protocol described above was then applied to the cells every 12 s throughout the procedure. Only stable cells with recording parameters above threshold (see Quality Control section) were allowed to enter the drug addition procedure. External solution containing 0.1% DMSO (vehicle) was applied to the cells to establish a baseline. After allowing the current to stabilize for 3 to 5 min, test articles were applied. Test article solutions were added to cells in 4 separate additions. […]

HCV = details: cited from earlier work
[2] = test system: replicon harboring the A156T mutation; assay: Whole cell RNA electroporation, SCH503034 resistant clone; assay type: cell-based, HCV
[3] = test system: replicon harboring the W55R mutation; assay: Whole cell RNA electroporation, clemizole resistant clone; assay type: cell-based, HCV; details: 10 μM clemizole; 2.5 μM SCH503034
Description: Whole cell RNA was extracted from clemizole-resistant replicon clones and from untreated replicon cells using TRIzol reagent (Invitrogen). Equal amounts of whole cell RNA (50 μg) were electroporated into Huh7.5 cells as described above. Cells were grown under G418 selection in the presence or absence of clemizole for 3 weeks. The number of colonies was determined using Image J (NIH) following fixation and staining with Crystal violet.
Cells transfected with whole cell RNA extracted from wild type replicon cells were sensitive to both drugs.

[4] = test system: subgenomic Bart 79I HCV RNA replicon (genotype 1b); assay: microbe, parasite or virus in culture; assay type: cell-based; details: Hepatitis C virus; genotype 1b luciferase reporter, 72 hr; read-out: EC50 HCV replication
Description: Huh7.5 cells were electroporated with a subgenomic Bart 79I HCV RNA replicon harboring a luciferase reporter gene, and grown in the presence of increasing concentrations of the individual compounds or their combinations. As described above, luciferase assays and Alamar Blue-based viability assays were performed at 72 hr.

Huh7.5 cells = assay: Alamar Blue-based cell viability assay; parameters: species or system human
Description: (§1) Total volume per well is 100 μl.
(§2) (or until there is a color change).

[5] = Alamar Blue-based cell viability assay; parameters: species or system human; details: human, Huh7.5 cells; genotype 2a experiments; Alamar Blue-based and CellTiter-Blue assay
Description: as §1, §2

HuR = target: T1, HuR (Homo sapiens, UniProt Q15717); assay: HuR RNA binding by microfluidics (specificity of hits); details: 0.1 mM
T1 construct: The open reading frames (ORF) of HuR and HuD were obtained from the ORFeome library of cDNA clones (Open biosystems); V5-his (C); made in house; host or cells: cell-free expression on the microfluidic device, from pcDNA-Dest 40 carrying the ORFeome clone (Open Biosystems)
Description: Specificity of hits identified in the small molecule screen: To determine the specificity of the hits identified in the small molecule screen, the HuR protein (one of the human RNA binding protein used to validate our RNA binding assay) was selected. […] Binding of HuR to the consensus 4A RNA sequence was tested in the presence of the inhibitory molecules shown to inhibit RNA binding by NS4B. […] Similarly, 0.1 mM of the identified compounds didn't have an inhibitory effect on binding of HuR to the 3′ terminus of the negative HCV RNA strand.

HCV RNA replication = assay: RNA replication inhibition assay (luciferase reporter-linked HCV genome); details: Hepatitis C virus, percentage of untreated control population; for activity at 5 µM: read-out: Residual Luciferase activity, 5 micromolar; for activity at 10 µM: read-out: Residual Luciferase activity, 10 micromolar

T1 sequence (Q15717 whole entry): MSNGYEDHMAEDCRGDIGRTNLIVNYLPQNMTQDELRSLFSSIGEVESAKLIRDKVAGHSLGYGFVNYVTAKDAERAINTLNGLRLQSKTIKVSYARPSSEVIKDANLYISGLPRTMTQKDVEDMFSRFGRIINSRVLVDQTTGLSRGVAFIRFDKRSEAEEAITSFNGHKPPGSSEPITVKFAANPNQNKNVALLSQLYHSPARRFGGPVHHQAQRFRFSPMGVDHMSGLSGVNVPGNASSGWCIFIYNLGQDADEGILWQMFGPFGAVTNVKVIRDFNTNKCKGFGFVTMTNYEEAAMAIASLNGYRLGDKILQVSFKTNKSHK
hERG channel, sequence (Q12809 whole entry): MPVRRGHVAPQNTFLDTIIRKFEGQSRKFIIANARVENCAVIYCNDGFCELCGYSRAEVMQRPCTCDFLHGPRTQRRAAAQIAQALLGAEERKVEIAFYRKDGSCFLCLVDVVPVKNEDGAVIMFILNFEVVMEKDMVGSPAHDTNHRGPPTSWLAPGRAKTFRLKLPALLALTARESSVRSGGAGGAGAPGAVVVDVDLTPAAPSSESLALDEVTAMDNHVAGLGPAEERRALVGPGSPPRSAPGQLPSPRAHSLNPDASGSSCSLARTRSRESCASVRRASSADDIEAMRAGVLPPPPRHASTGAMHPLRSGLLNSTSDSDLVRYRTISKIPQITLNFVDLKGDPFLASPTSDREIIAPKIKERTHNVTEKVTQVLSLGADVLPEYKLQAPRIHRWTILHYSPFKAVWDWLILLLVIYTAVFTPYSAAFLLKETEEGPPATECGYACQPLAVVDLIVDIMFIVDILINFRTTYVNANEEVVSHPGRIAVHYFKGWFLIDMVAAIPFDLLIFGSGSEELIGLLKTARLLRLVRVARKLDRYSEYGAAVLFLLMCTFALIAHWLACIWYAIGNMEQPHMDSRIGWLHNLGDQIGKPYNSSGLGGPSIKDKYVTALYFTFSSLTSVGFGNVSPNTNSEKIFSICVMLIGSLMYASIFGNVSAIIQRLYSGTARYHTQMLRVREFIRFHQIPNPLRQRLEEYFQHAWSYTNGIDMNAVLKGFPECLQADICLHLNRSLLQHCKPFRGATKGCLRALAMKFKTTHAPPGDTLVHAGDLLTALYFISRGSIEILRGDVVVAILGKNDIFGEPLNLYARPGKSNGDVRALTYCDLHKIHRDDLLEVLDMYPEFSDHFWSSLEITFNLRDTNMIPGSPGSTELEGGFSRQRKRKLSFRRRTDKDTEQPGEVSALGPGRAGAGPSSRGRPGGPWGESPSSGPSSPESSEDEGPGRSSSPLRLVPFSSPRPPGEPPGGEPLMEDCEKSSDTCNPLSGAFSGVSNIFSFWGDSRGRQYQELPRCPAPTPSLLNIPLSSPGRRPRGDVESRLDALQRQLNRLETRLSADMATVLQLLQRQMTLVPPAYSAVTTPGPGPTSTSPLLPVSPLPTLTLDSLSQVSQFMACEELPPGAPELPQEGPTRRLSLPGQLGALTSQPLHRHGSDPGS

For `CC(C)[C@H](N)C(=O)O[C@@H]1[C@@H](CO)O[C@@H](n2ccc(N)nc2=O)[C@]1(C)O` [NM283, valopicitabine], the EC50 [1] was 1.16 ± 0.2 µM.

For `O=c1ccc(-c2nc3cc(Cl)c(Cl)cc3n2Cc2ccc(Cl)c(Cl)c2)c[nH]1` [Compound 167], the IC50 (hERG channel; read-out: HERG IC50, CHO cell line stably expressing hERG) was greater than 1 µM.

Work on `Cc1ccc2c(c1)nc(CN1CCCCC1)n2Cc1ccc(Cl)cc1` [Compound 184] yielded an IC50 (hERG channel; human, CHO cells stably expressing hERG) greater than 1 µM.

In the case of `CNC(=O)c1c(-c2ccc(F)cc2)oc2cc(N(CCO)S(C)(=O)=O)c(C3CC3)cc12` [HCV 796, HCV-796], the EC50 (HCV; read-out: EC50 reported value) is listed as 0.017 µM and the EC50 [1] is listed as 0.068 ± 0.008 µM.

In the case of `CC(C)(C)NC(=O)N[C@H](C(=O)N1C[C@H]2[C@@H]([C@H]1C(=O)NC(CC1CCC1)C(=O)C(N)=O)C2(C)C)C(C)(C)C` (some centres unmarked) [SCH503034, boceprevir], the EC50 [1] is reported as 0.8 µM, the “decrease of viral replication” value ([1]; SCH503034 alone at 2.5 μM) is reported as roughly 1 log and the “viral replication relative to 1, untreated” value ([1]; SCH503034 alone at 2.5 μM) is reported as 0.08. For the same compound, the “sensitivity of Huh7.5 cells transfected with whole cell RNA from A156T clone” value [2] was “decreased sensitivity”, the “sensitivity of Huh7.5 cells transfected with whole cell RNA from W55R clone” value [3] was “remained sensitive” and the EC50 [4] was roughly 0.21 µM. It also gave a CC50 (Huh7.5 cells; genotype 1b experiments, Alamar Blue, 72 hr) greater than 100 µM and a CC50 at 72 h [5] greater than 100 µM.

For `Clc1ccc(Cn2c(CN3CCCC3)nc3ccccc32)cc1` [Clemizole hydrochloride, clemizole hydrochloride], the “decrease in viral replication” value ([1]; 20 μM, 72 hr) was “tenfold”, the cellular toxicity (Huh7.5 cells; at antiviral concentrations, Alamar Blue, 72 hr, hydrochloride) was “no measurable cellular toxicity” and the cellular toxicity (Huh7.5 cells; human, 72 h) was “little toxicity”.

For `O=C(O)C1=CC(=C(c2ccc(O)c(C(=O)O)c2)c2ccc(O)c(C(=O)O)c2)C=CC1=O` [ATA], the “effect on binding of HuR to 4A RNA sequence” value (HuR) was “affected; also recorded: significantly inhibited” and the “effect on binding of HuR to the 3′ terminus of the negative HCV RNA strand” value (HuR) was “significantly inhibited”.

In the case of `CCC[C@H](NC(=O)[C@@H]1[C@H]2CCC[C@H]2CN1C(=O)[C@@H](NC(=O)[C@@H](NC(=O)c1cnccn1)C1CCCCC1)C(C)(C)C)C(=O)C(=O)NC1CC1` [VX-950, telaprevir], the EC50 (HCV; different assay and 1b genotype, read-out: EC50 reported by others) is given as 0.354 to 0.56 µM and the EC50 [1] is given as roughly 0.3 µM.

`Cc1cc2c(ncn2Cc2ccc(Cl)cc2)c([N+](=O)[O-])c1C` [Compound 66] showed an activity at 5 µM (HCV RNA replication) of less than 80% and an activity at 10 µM (HCV RNA replication) of less than 55%.

For `CC(=O)NCc1nc2ccccc2n1Cc1ccc(Cl)cc1` [Compound 110], the activity at 5 µM (HCV RNA replication) was greater than 80% and the activity at 10 µM (HCV RNA replication) was greater than 80%.

`Cc1cc2c(ncn2Cc2ccc(Cl)cc2)c(CS(C)(=O)=O)c1C` [Compound 81] showed an activity at 5 µM (HCV RNA replication) greater than 80% and an activity at 10 µM (HCV RNA replication) of less than 80%.

Work on `Cc1cc2nc(CN3CCC[C@@H]3CO)n(Cc3ccc(Cl)cc3)c2cc1C` [Compound 48] yielded an activity at 5 µM (HCV RNA replication) greater than 80% and an activity at 10 µM (HCV RNA replication) of less than 80%.

`COC(=O)c1ccc(Cn2cnc3ccncc32)cc1` [Compound 161] showed an activity at 5 µM (HCV RNA replication) greater than 80% and an activity at 10 µM (HCV RNA replication) greater than 80%.

For `FC(F)(F)c1nc2ccccc2n1Cc1ccc(Cl)c(Cl)c1` [Compound 124], the activity at 5 µM (HCV RNA replication) was less than 55% and the activity at 10 µM (HCV RNA replication) was less than 55%.

`Cc1cc2nc(CN3CCC[C@H]3C)n(Cc3ccc(Cl)cc3)c2cc1C` [Compound 98] gave an activity at 5 µM (HCV RNA replication) of less than 55% and an activity at 10 µM (HCV RNA replication) of less than 20%.

In the case of `Cc1cc2nc(CN3CCCC3C)n(Cc3ccc(Cl)cc3)c2cc1C` (centres unmarked) [Compound 49], the activity at 5 µM (HCV RNA replication) is reported as less than 55% and the activity at 10 µM (HCV RNA replication) is reported as less than 55%.

For `Cc1cc2ncn(Cc3ccc(Cl)cc3Cl)c2cc1C` [Compound 130], the activity at 5 µM (HCV RNA replication) was less than 55% and the activity at 10 µM (HCV RNA replication) was less than 20%.

With `Cc1c(Cl)cnc2c1ccn2Cc1ccc(Cl)cc1` [Compound 102] the activity at 5 µM (HCV RNA replication) was less than 80% and the activity at 10 µM (HCV RNA replication) was less than 80%.

`O[C@H]1CCN(Cc2nc3ccccc3n2Cc2ccc(Cl)cc2)C1` [Compound 23] gave an activity at 5 µM (HCV RNA replication) greater than 80% and an activity at 10 µM (HCV RNA replication) greater than 80%.

In the case of `COC(=O)c1cccc(Cn2c(CN3CCCC3)nc3ccccc32)c1` [Compound 16], the activity at 5 µM (HCV RNA replication) is reported as greater than 80% and the activity at 10 µM (HCV RNA replication) is reported as greater than 80%.

With `Cc1cccc(Cn2c(C)nc3c(NS(C)(=O)=O)c(C)c(C)cc32)c1` [Compound 77] the activity at 5 µM (HCV RNA replication) was greater than 80% and the activity at 10 µM (HCV RNA replication) was less than 80%.

Work on `Cc1cc2ncn(Cc3ccc(Cl)c(Cl)c3)c2cc1C` [Compound 131] yielded an activity at 5 µM (HCV RNA replication) of less than 80% and an activity at 10 µM (HCV RNA replication) of less than 55%.

For `CCN(CC)c1c(C)c(C)cc2c1ncn2Cc1ccc(Cl)cc1` [Compound 73], the activity at 5 µM (HCV RNA replication) was less than 80% and the activity at 10 µM (HCV RNA replication) was less than 55%.

With `Cc1cc2ncn(Cc3cc(Cl)cc4c3OCCO4)c2cc1C` [Compound 154] the activity at 5 µM (HCV RNA replication) was less than 80% and the activity at 10 µM (HCV RNA replication) was less than 55%.

Compound `Cc1cc2c(ncn2Cc2ccc(Cl)cc2)c(NC(=O)C(C)C)c1C` [Compound 69] has an activity at 5 µM (HCV RNA replication) greater than 80% and an activity at 10 µM (HCV RNA replication) of less than 80%.

`COCC1CCCN1Cc1nc2ccccc2n1Cc1ccc(Cl)cc1` (centres unmarked) [Compound 10] gave an activity at 5 µM (HCV RNA replication) of less than 80% and an activity at 10 µM (HCV RNA replication) of less than 80%.
